# Like-named read-outs stand apart in the source and are kept apart here.
# Legend:
# CYP3A4 = experiment: CYP induction, in situ catalytic activity, human hepatocytes; format: in vitro ADME
# HepG2 cells = experiment: Cytotoxicity MTT assay in HepG2; format: cell-based; conditions: 72-hr, 10 to 100 μM
# MARK3 = target: T1, MARK3 (Homo sapiens, UniProt P27448); experiment: KINOMEscan binding (% Ctrl, Kd)
# T1 construct: made in house; host or cells: E. coli BL21-derived host (T7 phage) or HEK-293
# Description: (§1) Briefly, E. coli host derived from the BL21 strain were grown to log-phase and infected with kinase-tagged T7 phage and incubated with shaking at 32°C until lysis. The lysates were centrifuged and filtered to remove cell debris. The remaining kinases were produced in HEK-293 cells and subsequently tagged with DNA for qPCR detection. Streptavidin-coated magnetic beads were treated with biotinylated small molecule ligands to generate affinity resins for kinase assays. The liganded beads were blocked with excess biotin and washed to remove unbound ligand and to reduce non-specific phage binding. […] Selectivity Score (S-score) was a quantitative measure of compound selectivity. […] The binding constants (Kds) were also determined with a standard dose-response curve using the Hill equation and Levenberg-Marquardt algorithm [24, 25].
# [1] = system: 403 non-mutant human kinases; conditions: screening concentration 1 µM, S-score with % Control <35
# Description: as §1
# D3R = system: D3R; design: method as in PMID 31526003; conditions: read-out: antagonist effect on D3R (IC50); cited from earlier work
# [2] = Metabolic stability in hepatocyte; conditions: human, hepatocytes in suspension
# Description: (§2) CYP3A4 substrate Midazolam (10 μM) was prepared and incubated in the same manner. […] In addition, in vitro half-life (t1/2, min) and intrinsic clearance (CLint, μl/min/10^6 cells) were calculated [10, 11].
# human hepatocytes = experiment: Metabolic stability in hepatocyte; conditions: for % remaining Vs T = 0 min: human hepatocytes
# Description: as §2
# [3] = Metabolic stability in hepatocyte; conditions: Sprague Dawley, rat, hepatocytes in suspension
# Description: as §2
# rat hepatocytes = experiment: Metabolic stability in hepatocyte; conditions: rat hepatocytes
# Description: as §2
# [4] = Stability in the absence of hepatocytes; conditions: no hepatocytes
# Description: as §2
# [5] = Sprague Dawley (rat), Beagle (dog), rat, dog
# T1 sequence (P27448 whole entry): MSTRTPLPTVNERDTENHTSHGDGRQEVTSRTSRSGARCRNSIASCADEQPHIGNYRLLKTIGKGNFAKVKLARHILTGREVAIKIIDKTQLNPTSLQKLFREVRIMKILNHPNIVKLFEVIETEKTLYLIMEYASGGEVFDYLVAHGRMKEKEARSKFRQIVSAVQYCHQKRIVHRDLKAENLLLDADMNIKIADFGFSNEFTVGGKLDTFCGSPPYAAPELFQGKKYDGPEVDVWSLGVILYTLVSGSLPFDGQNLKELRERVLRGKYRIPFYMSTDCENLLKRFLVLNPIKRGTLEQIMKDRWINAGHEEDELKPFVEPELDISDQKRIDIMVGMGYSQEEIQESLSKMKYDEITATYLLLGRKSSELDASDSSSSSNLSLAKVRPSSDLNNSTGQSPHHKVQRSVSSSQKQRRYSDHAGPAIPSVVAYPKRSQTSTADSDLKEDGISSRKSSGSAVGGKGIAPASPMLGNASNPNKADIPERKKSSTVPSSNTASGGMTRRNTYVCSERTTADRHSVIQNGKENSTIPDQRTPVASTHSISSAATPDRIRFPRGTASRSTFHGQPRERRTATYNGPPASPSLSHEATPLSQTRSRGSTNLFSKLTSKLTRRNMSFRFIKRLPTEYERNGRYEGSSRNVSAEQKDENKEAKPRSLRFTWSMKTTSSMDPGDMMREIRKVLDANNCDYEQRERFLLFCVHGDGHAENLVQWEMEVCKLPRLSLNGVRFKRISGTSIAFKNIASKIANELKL
smiles,measurement,setting,value
"CCc1cc(Cl)c(OC)c(N2CCN(CC(O)CCNC(=O)c3cc4ccccc4[nH]3)CC2)c1 (stereo not shown) [R-VK4-116, N-(4-(4-(3-chloro-5-ethyl-2-methoxyphenyl)piperazin-1-yl)-3-hydroxybutyl)-1H-indole-2-carboxamide]","Fold of Vehicle Control (CYP3A4 activity, testosterone-6β-hydroxylation)","CYP3A4; hepatocyte Lot 348B, 3 µM",0.56 fold
same,"Fold of Vehicle Control (CYP3A4 activity, testosterone-6β-hydroxylation)","CYP3A4; hepatocyte Lot 348B, 5 µM",0.56 fold
same,"Fold of Vehicle Control (CYP3A4 activity, testosterone-6β-hydroxylation)","CYP3A4; hepatocyte Lot 348B, 10 µM",0.49 fold
same,"Fold of Vehicle Control (CYP3A4 activity, testosterone-6β-hydroxylation)","CYP3A4; hepatocyte Lot 399, 0.01 µM",1.0 fold
same,Testosterone-6β- Hydroxylation,"CYP3A4; hepatocyte Lot 399, 0.01 µM",58 pmol/min/106 cells
same,"Fold of Vehicle Control (CYP3A4 activity, testosterone-6β-hydroxylation)","CYP3A4; hepatocyte Lot 399, 0.1 µM",0.89 fold
same,Testosterone-6β- Hydroxylation,"CYP3A4; hepatocyte Lot 399, 0.1 µM",49 pmol/min/106 cells
same,"Fold of Vehicle Control (CYP3A4 activity, testosterone-6β-hydroxylation)","CYP3A4; hepatocyte Lot 399, 1 µM",0.45 fold
same,Testosterone-6β- Hydroxylation,"CYP3A4; hepatocyte Lot 399, 1 µM",25 pmol/min/106 cells
same,"Fold of Vehicle Control (CYP3A4 activity, testosterone-6β-hydroxylation)","CYP3A4; hepatocyte Lot 399, 3 µM",0.32 fold
same,Testosterone-6β- Hydroxylation,"CYP3A4; hepatocyte Lot 399, 3 µM",18 pmol/min/106 cells
same,"Fold of Vehicle Control (CYP3A4 activity, testosterone-6β-hydroxylation)","CYP3A4; hepatocyte Lot 399, 5 µM",0.30 fold
same,Testosterone-6β- Hydroxylation,"CYP3A4; hepatocyte Lot 399, 5 µM",16 pmol/min/106 cells
same,"Fold of Vehicle Control (CYP3A4 activity, testosterone-6β-hydroxylation)","CYP3A4; hepatocyte Lot 399, 10 µM",0.23 fold
same,Testosterone-6β- Hydroxylation,"CYP3A4; hepatocyte Lot 399, 10 µM",13 pmol/min/106 cells
same,decrease in HepG2 cell viability compared with the solvent control (MTT),HepG2 cells,40–50%
same,Kd,"MARK3; 11-point curve 0.001 to 10 μM, read-out: binding constant (Kd)",> 10000 nM
same,remaining binding at 1 µM,MARK3; read-out: %Control,< 35%
same,remaining binding at 1 µM,MARK3; read-out: Gene (S-score with % control): MARK3,0%
same,Selectivity score,[1],0.012
same,IC50,D3R,350 nM
same,half-life at 0.5 μM,[2]; [5],1.52 to 1.95 h
same,half-life at 10 μM,[2]; [5],2.82 to 5.78 h
same,hepatocyte CLint at 0.5 μM,[2]; [5],12 to 16 µL/min/1e6 cells
same,hepatocyte CLint at 10 μM,[2]; [5],4 to 8 µL/min/1e6 cells
same,half-life at 0.5 μM,[2],1.95 h
same,half-life at 10 μM,[2],5.63 h
same,hepatocyte CLint at 0.5 μM,[2],11.8 µL/min/1e6 cells
same,hepatocyte CLint at 10 μM,[2],4.1 µL/min/1e6 cells
same,% remaining Vs T = 0 min,"human hepatocytes; 0.5 μM, 0 min",100.0%
same,% remaining Vs T = 0 min,"human hepatocytes; 0.5 μM, 30 min",89.1%
same,% remaining Vs T = 0 min,"human hepatocytes; 0.5 μM, 60 min",78.4%
same,% remaining Vs T = 0 min,"human hepatocytes; 0.5 μM, 90 min",65.4%
same,% remaining Vs T = 0 min,"human hepatocytes; 0.5 μM, 120 min",48.1%
same,% remaining Vs T = 0 min,"human hepatocytes; 10 μM, 0 min",100.0%
same,% remaining Vs T = 0 min,"human hepatocytes; 10 μM, 30 min",93.2%
same,% remaining Vs T = 0 min,"human hepatocytes; 10 μM, 60 min",85.5%
same,% remaining Vs T = 0 min,"human hepatocytes; 10 μM, 90 min",78.9%
same,% remaining Vs T = 0 min,"human hepatocytes; 10 μM, 120 min",79.7%
same,metabolic stability,"human hepatocytes; human, rat, or dog hepatocytes, 0.5 and 10 μM",metabolically stable
same,half-life at 0.5 μM,[3],1.44 h
same,half-life at 10 μM,[3],2.82 h
same,hepatocyte CLint at 0.5 μM,[3],16 µL/min/1e6 cells
same,hepatocyte CLint at 10 μM,[3],8.2 µL/min/1e6 cells
same,% remaining Vs T = 0 min,"rat hepatocytes; 0.5 μM, 0 min",100.0%
same,% remaining Vs T = 0 min,"rat hepatocytes; 0.5 μM, 30 min",85.0%
same,% remaining Vs T = 0 min,"rat hepatocytes; 0.5 μM, 60 min",55.6%
same,% remaining Vs T = 0 min,"rat hepatocytes; 0.5 μM, 90 min",42.4%
same,% remaining Vs T = 0 min,"rat hepatocytes; 0.5 μM, 120 min",42.5%
same,% remaining Vs T = 0 min,"rat hepatocytes; 10 μM, 0 min",100.0%
same,% remaining Vs T = 0 min,"rat hepatocytes; 10 μM, 30 min",95.8%
same,% remaining Vs T = 0 min,"rat hepatocytes; 10 μM, 60 min",92.5%
same,% remaining Vs T = 0 min,"rat hepatocytes; 10 μM, 90 min",66.7%
same,% remaining Vs T = 0 min,"rat hepatocytes; 10 μM, 120 min",64.6%
same,% remaining Vs T = 0 min,"[4]; 0.5 μM, 0 min",100.0%
same,% remaining Vs T = 0 min,"[4]; 0.5 μM, 30 min",86.2%
same,% remaining Vs T = 0 min,"[4]; 0.5 μM, 60 min",81.6%
same,% remaining Vs T = 0 min,"[4]; 0.5 μM, 90 min",79.9%
same,% remaining Vs T = 0 min,"[4]; 0.5 μM, 120 min",78.4%
same,% remaining Vs T = 0 min,"[4]; 10 μM, 0 min",100.0%
same,% remaining Vs T = 0 min,"[4]; 10 μM, 30 min",92.9%
same,% remaining Vs T = 0 min,"[4]; 10 μM, 60 min",87.5%
same,% remaining Vs T = 0 min,"[4]; 10 μM, 90 min",87.9%
same,% remaining Vs T = 0 min,"[4]; 10 μM, 120 min",77.3%

# Reference: article PMC11649115, “In vitro safety evaluation of dopamine D3R antagonist, R-VK4-116, as a potential medication for the treatment of opioid use disorder” (PLOS ONE, 2024)
